Source: US20240148679A1, “METHODS AND COMPOSITIONS RELATED TO TREATMENT AND PREVENTION OF CANCER BY INHIBITION OF DGAT1 AND DGAT2” (Ohio State Innovation Foundation, priority 2019, published 2024)
“Also recorded” adds a separate entry of the source.

Tests used:
Assay type in all cases: cell-based, human
GBM cells = experiment: GBM cell death, trypan blue counting; details: for cell death caused by DGAT1 inhibition (rescue): co-treatment with DGAT1 inhibition (A-922500 20 μg/ml, 3 days), U251
GBM cells (U251) = experiment: ROS detection with CellROX Deep Red; details: co-treatment (NAC 1 mM; ETO 6 μM) with DGAT1 inhibition
Description: (A, B) Transmission electron microscopy (TEM) analysis of the mitochondrial morphology in GBM cells (U251) treated with the DGAT1 inhibitor A-922500 (20 μg/ml) or DGAT2 inhibitor PF-06424439 (20 μg/ml) for 24 hr and shown in a or infected with shRNA-expressing lentivirus against DGAT1 for 48 hr and shown in b. Scale bar, 500 nm. Mitochondria are indicated by red arrows. Mitochondria length and loss of cristae (%) were quantified by ImageJ over 100 mitochondria in each group (mean±SEM). Statistical significance was determined by one-way ANOVA. * P<0.0001. (C, D) Representative fluorescence images of LDs (green) and mitochondria (red) in U251 cells treated with DGAT1 or DGAT2 inhibitor and shown in c or shRNA in (D) as in panels (A, B). […] The percentage of cells with tubular or fragmented mitochondria was quantified by ImageJ in more than 100 cells (mean±SEM). Statistical significance was determined by one-way ANOVA. * P<0.001. […] Lower panels show the quantification of relative basal and maximal OCR change (details please see Methods). […] Basal OCR was determined as OCR before oligomycin subtract OCR after rotenone addition, and maximal OCR was determined as OCR after FCCP subtract OCR after rotenone addition. Statistical significance was determined by one-way ANOVA. * P<0.0001. […] ROS were detected with CellROX Deep Red, and mitochondria were stained with MitoTracker Green. […]

liver cancer cells = experiment: Liver cancer cell death with DGAT1 and DGAT2 inhibitors alone or in combination
Description: MHCC97L 6×10^4 12 well plate, treated at 24 hours with 1% FBS DMEM with DGAT1 and DGAT2 inhibitors. Picture taken on day 4.
HEPG2 6×10^4 12 well plate, treated at 24 hours with 1% FBS DMEM with DGAT1 and DGAT2 inhibitors. Picture taken on day 4.
HeG2 8×10^4 12 well plate, treated at 24 hours with 1% FBS DMEM with DGAT1 and DGAT2 inhibitors. Picture taken on day 4.
Huh7 4×10^4 12-well plate, treated at 24 hours with 1% FBS DMEM with DGAT1 and DGAT2 inhibitors. Picture taken on day 4.
Hep3B 6×10^4 12-well plate, treated at 24 hours with 1% FBS DMEM with DGAT1 and DGAT2 inhibitors. Picture taken on day 4.
Huh7 6×10^4 12-well plate, treated at 24 hours with 1% FBS DMEM with DGAT1 and DGAT2 inhibitors. Picture taken on day 4.

[1] = DGAT1 inhibitor in combination with DGAT2 inhibitor

## Cc1cc(=O)oc2c(C=O)c(O)ccc12 [4μ8C]
GBM cells
  cell death caused by DGAT1 inhibition (rescue): did not exert any rescue effects; also recorded: No rescue effects

## CCOC(=O)[C@@]1(CCCCCCOc2ccc(Cl)cc2)CO1 [ETO]
GBM cells (U251)
  ROS caused by DGAT1 inhibition: significantly reduced
GBM cells
  cell death caused by DGAT1 inhibition (rescue): significantly reduced

## Cc1cccc(CC(=O)N2CCc3c2ccc(-c2cn(C)c4ncnc(N)c24)c3F)n1 [GSK2656157]
GBM cells
  cell death caused by DGAT1 inhibition (rescue): did not exert any rescue effects; also recorded: No rescue effects

## N#Cc1ccc(Oc2ccc(/C=C3\SC(=NCCc4ccccn4)NC3=O)cc2F)c(Br)c1 [JNJ DGAT2-A]
Liver cancer cells; [1]
  liver cancer cell death: effective to kill liver cancer cells
Liver cancer cells; each single inhibitor
  liver cancer cell death: no ability to induce liver cancer cell death

## CC(=O)N[C@@H](CS)C(=O)O [NAC, N-acetyl-cysteine]
GBM cells (U251)
  ROS caused by DGAT1 inhibition: significantly decreased
GBM cells; NAC 1 mM with acylcarnitines 20 μM, 2 days
  acylcarnitine-induced GBM cell death: significantly reduced
GBM cells
  cell death caused by DGAT1 inhibition (rescue): significantly decreased

## O=C(O)C[C@H]1CC[C@H](c2ccc(-c3ccc(Nc4ccc(C(F)(F)F)nc4)cn3)cc2)CC1 [Pradigastat]
Liver cancer cells; [1]
  liver cancer cell death: effective to kill liver cancer cells
Liver cancer cells; each single inhibitor
  liver cancer cell death: no ability to induce liver cancer cell death

## CCCCCCC(=O)CCCCCC/C=C/C[C@@H](O)[C@H](O)[C@@](N)(CO)C(=O)O [myriocin]
GBM cells
  cell death caused by DGAT1 inhibition (rescue): no rescue effects; also recorded: does not rescue cell death
